Measurements as given in PMC11328113, “Dissecting the functional behavior of the differentially phosphorylated prolyl isomerase, Pin1” (Protein Science : A Publication of the Protein Society, 2024).
One block for each molecule: values may come before it. Where a SMILES comes first, the peptide text is derived from it. Where no end group is shown, it is not given here. [ ]: non-standard residue; d: D form. The star is where a group is joined. FITC = O=C1OC2(c3ccc(O)cc3Oc3cc(O)ccc32)c2ccc(NC(=S)*)cc21; pS = N[C@@H](COP(=O)(O)O)C(=O)O; Ahx = NCCCCCC(=O)O

Tests used:
Pin1 [1] = molecular target: T1, Pin1 (Homo sapiens, UniProt Q13526); test: Native MS of Pintide bound to differentially phosphorylated Pin1; type: binding; conditions: for % Pintide bound: 2.5 μM : 25 μM Pin1 : Pintide, 100 mM ammonium acetate, mean ± SD, triplicate
T1 construct: His6 (TEV-cleavable) (N, cleaved yes); host or cells: E. coli BL21 (DE3)
T1 sequence (Q13526 whole entry): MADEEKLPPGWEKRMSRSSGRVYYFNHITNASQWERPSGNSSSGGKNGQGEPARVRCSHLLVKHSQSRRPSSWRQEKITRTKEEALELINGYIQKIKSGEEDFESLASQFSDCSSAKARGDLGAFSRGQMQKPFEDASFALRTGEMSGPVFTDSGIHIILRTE
Procedure: (§1) To phosphorylate Pin1 for the native MS analysis, Pin1 (10 μM) was incubated at 30°C with 2 mM ATP, 10 mM MgCl2 (BDH Laboratory supplies), and 10,000 units PKA in 100 mM ammonium acetate pH 6.8 for 1, 3, 8, and 24 h. The concentration of PKA and Pin1 was optimized in order to detect sequential phosphorylation within the time course. At each time‐point, aliquots were taken, the reaction quenched by addition of EDTA (final concentration 20 mM), and the sample buffer exchanged using 3 kDa Amicon Ultra 0.5 mL centrifugal concentrators into 100 mM ammonium acetate pH 6.8 prior to MS analysis. Phosphorylation assays at each time‐point were carried out in triplicates, and the error was reported as the standard deviation.
Unlabeled Pintide [AcHN‐WFY(pS)PFLE‐CONH2] was purchased from China Peptides and dissolved in 100 mM ammonium acetate pH 8 to a final concentration of 1 mg/mL and stored at −80°C until use. To determine the affinity of […] for differentially phosphorylated Pin1, Pintide was added to each Pin1 phosphorylation time‐point at a 2.5 μM: 25 μM Pin1 to Pintide ratio and the sample was directly infused into the mass spectrometer. Experiments were carried out in triplicates, and the error was reported as the standard deviation.
(§2) All native MS was performed on a QExactive HF mass spectrometer (Thermo Fisher Scientific) equipped with a nanoelectrospray ionization source that used gold‐coated borosilicate glass capillaries, pulled in‐house. Positive ionization mode was used throughout, with the capillary voltage set to 1.2 kV. The source temperature was set at 250°C, in source dissociation at 0, S‐lens RF at 100. The Pin1 concentration was set to 2.5 μM and a mass range of 1500–4000 m/z was acquired. Mass spectra were acquired using a maximum ion injection time of 100 ms. The automatic gain control was set to 1 x 10^6 and the ions detected in the orbitrap with resolution set to 15,000. All data were analyzed using XCalibur (version 4.2). To quantify the abundance of unphosphorylated, phosphorylated Pin1 and Pin1‐Pintide complexes, the relative abundance of the peaks corresponding to the specific 9+, 8+, and 7+ Pin1 species of interest was summed and expressed as a percentage of all Pin1‐containing peaks detected.

[2] = system: cAMP-dependent protein kinase (PKA); test: Native MS of Pin1 phosphorylation by PKA; type: biochemical; conditions: 30°C, pH 6.8, mean ± SD, triplicate
Procedure: as §1, §2

[3] = system: cAMP-dependent protein kinase (PKA); test: LC-MS/MS phosphosite occupancy of Pin1 upon incubation with PKA (Lys-C digestion); type: biochemical; conditions: triplicate
Procedure: as §1
Phosphorylated Pin1 was digested with either trypsin (Promega) or the endoproteinase Lys‐C (Promega) at a 1:50 ratio of enzyme: protein. To localize the phosphorylation sites, trypsin digestion was performed. To quantify the phosphosite occupancy over the phosphorylation time‐course, differentially phosphorylated Pin1 was digested with Lys‐C. For both enzymatic reactions, Pin1 was digested in 100 mM ammonium bicarbonate pH 8.0 for 3 h at 37°C, and the reaction was quenched by the addition of formic acid (2% v/v final concentration). All peptides were separated using an UltiMate 3000 HPLC series, which was either coupled to a QExactive HF or Orbitrap Eclipse mass spectrometer (Thermo Fisher Scientific). […] To quantify the extent of phosphorylation on Pin1, MS/MS was performed on the QExactive HF mass spectrometer. […]
To quantify the abundance of phosphorylated peptides, the retention time of the eluted peptides was identified using Proteomic Discoverer v.2.5. Spectra were averaged across the peptides chromatographic peak, and the percentage of phosphorylated peptide was calculated as a percentage of the total abundance of unphosphorylated and phosphorylated peptide. Full details of the peptides used for quantitation are detailed in the Supporting Information (Table S4).

Pin1 [4] = molecular target: T1, Pin1; test: Chymotrypsin-coupled Pin1 PPIase assay (suc-AEPF-pNA); type: biochemical; conditions: in the absence of PKA, 4°C, pH 7.8
Procedure: To perform the FP and enzymatic activity assays, Pin1 was phosphorylated by incubation of 40 μM Pin1 with 10,000 units of cAMP‐dependent protein kinase (PKA) (New England BioLabs) in kinase buffer (50 mM Tris‐HCl, 10 mM MgCl2, 1 mM DTT, and pH 7.5) supplemented with 2 mM adenosine triphosphate (ATP) (New England BioLabs) at 37°C. At 1 min, 1 h, 3 h, 8 h, 12 h, 18 h, 24 h, and 32 h, aliquots were taken, and PKA activity was stopped by addition of 20 mM EDTA, and the samples were kept at −80°C prior to analysis.
Pin1 (phosphorylated or non‐phosphorylated, 80 nM), in buffer containing 35 mM HEPES, pH 7.8, was incubated with 30 mg/mL ice‐cold chymotrypsin (diluted in 1 mM HCl) (Sigma‐Aldrich) and 2.5 mM of PPIase substrate (Suc‐AEPF‐pNA in 460 mM LiCl in trifluoroethanol) (#SAP‐3947‐PI, Vivitide) in a 1 mL cuvette. pNA release was measured at 4°C for 1 min on a Cary 300 UV–visible spectrophotometer using an absorption wavelength at 390 nm.
The data were collected in triplicate and analyzed using GraphPad Prism 7. The data were reported as the mean ± standard error of the mean.

[5] = system: cAMP-dependent protein kinase (PKA); test: LC-MS/MS (EThcD) of additional Pin1 phosphosites after PKA incubation (trypsin digestion); type: biochemical; conditions: 24 h with PKA, not consistently detected across timepoints
Procedure: Phosphorylated Pin1 was digested with either trypsin (Promega) or the endoproteinase Lys‐C (Promega) at a 1:50 ratio of enzyme: protein. To localize the phosphorylation sites, trypsin digestion was performed. To quantify the phosphosite occupancy over the phosphorylation time‐course, differentially phosphorylated Pin1 was digested with Lys‐C. For both enzymatic reactions, Pin1 was digested in 100 mM ammonium bicarbonate pH 8.0 for 3 h at 37°C, and the reaction was quenched by the addition of formic acid (2% v/v final concentration). All peptides were separated using an UltiMate 3000 HPLC series, which was either coupled to a QExactive HF or Orbitrap Eclipse mass spectrometer (Thermo Fisher Scientific). Peptides were desalted on a PepMap100 C18 nanoViper trap column (75 μM x 2 cm, […] particle size) (Thermo Fisher Scientific) and separated with a PepMap100 C18 nanoViper analytical column (75 μM x 15 cm, […] particle size) (Thermo Fisher Scientific) using mobile phase A (H2O and 0.1% formic acid) and mobile phase B (100% acetonitrile and 0.1% formic acid) and eluted using a gradient from […] to 44% B over 30 min. The column flow rate was set to 350 nL/min with the column temperature set at 40°C. To quantify the extent of phosphorylation on Pin1, MS/MS was performed on the QExactive HF mass spectrometer. […]
To prevent phospho‐loss resulting in misassignment of the phosphosite location (Boersema et al., [2009]), electron transfer dissociation with supplemental HCD (EThcD) was performed on the trypsin‐digested peptides to localize the phosphosites. […] ETD was performed using an automatically determined reagent time set based on precursor charge state. […] Fragment ions were detected in the Orbitrap using a resolution setting of 30,000. […]
All RAW files were processed and analyzed using Proteome Discoverer version 2.5. […] Additional phosphosites, Ser58, Ser65, and Ser67 (Table S4) were detected after 24 h of incubation with PKA, however, these were not consistently detected across all timepoints and, therefore, were excluded from phosphosite quantitation. […]

Pin1 [6] = molecular target: T1, Pin1; test: Fluorescence polarization, FITC-Pintide binding to Pin1; conditions: fluorescently labelled Pintide 10 nM; FP, room temperature, 5 mM HEPES pH 7.4, 30 mM NaCl, 0.1% Tween20, 1% DMSO; triplicates; read-out: apparent Kd (Pin1 titration to fluorescently labelled Pintide)
Procedure: FP experiments were conducted using a fluorescein (FITC)‐labeled “Pintide” [5‐FITC‐(Ahx)‐WFY(pS)PFLE‐CONH2] purchased from China Peptides. FP data were collected at room temperature in buffer containing 5 mM HEPES pH 7.4, 30 mM NaCl, 0.1% v/v Tween20, and 1% v/v DMSO using Corning black, round‐bottom, low‐binding 384‐well plates. For all experiments, a fixed concentration of 10 nM fluorescently labeled Pintide and 40 μM of Pin1 protein was used. All plates were incubated for 10 min and shaken for 10 s before polarization was measured using a CLARIOstar Plus microplate reader with an excitation wavelength of 482/16 nm and an emission wavelength of 530/40 nm; dichroic mirror 504; flashes: 200. All data were analyzed using GraphPad Prism 7, and sigmoidal curves were fitted using the following Equation: Y=Bottom+Top−Bottom/1+10^Logt1/2−X*HillSlope. where Y = mP value, X = time, and Top and bottom = plateaus in mP.
Figure S1. (a) Fluorescence polarisation data for Pin1 titration to fluorescently labelled Pintide (10 nM). The apparent Kd was 0.7 µM. […] (b) Fluorescence polarisation control data showing polarisation, mP values, for the fluorescently labelled Pintide alone (Only Pintide, black), PKA in the presence of Pintide without Pin1 at 1 min and 24 h time points, and Pin1 in the presence of Pintide without PKA at 1 min and 24 h time points. […]

[7] = molecular target: Pin1 phosphorylated at Ser71 (singly phosphorylated Pin1) (UniProt Q13526); test: fluorescence polarisation; time course: Pin1 (40 uM) incubated with PKA and ATP at 37 C for 1 min to 32 h, stopped with 20 mM EDTA, then 10 nM FITC-Pintide; room temperature, 5 mM HEPES pH 7.4, 30 mM NaCl, 0.1% Tween20, 1% DMSO; control without PKA
Pin1 phosphorylated at Ser71 (singly phosphorylated Pin1), sequence (Q13526 whole entry): as above

Molecule: Pin1: peptidyl‐prolyl cis‐trans isomerase comprising N-terminal WW domain and C-terminal PPIase domain
relative abundance of doubly phosphorylated Pin1 ([2]; 3 h incubation with PKA): ~ 65 ± 23%
relative abundance of doubly phosphorylated Pin1 ([2]; 8 h incubation with PKA): 85% ± 11
relative abundance of Pin1 with two phosphorylation sites ([2]; 24 h incubation with PKA): 95% ± 0.01
phosphorylation occupancy of Ser16 ([3]; 1 h incubation with PKA): 4%
phosphorylation occupancy of Ser71 ([3]; 1 h incubation with PKA): ~ 90%
phosphorylation occupancy of Ser16 ([3]; 24 h incubation with PKA): ~ 80%
absorption at 390 nm upon addition of Pin1 to the substrate (catalytic activity) (Pin1 [4]): increased
Phosphorylation Stoichiometry (24h), Ser58 [5]: 0.19
Phosphorylation Stoichiometry (24h), Ser65 [5]: 0.05
Phosphorylation Stoichiometry (24h), Ser67 [5]: 0.05

Molecule: WFY[pS]PFLE-NH2 (not fully specified (N-terminus); printed as 5‐FITC‐(Ahx)‐WFY(pS)PFLE‐CONH_2_) [FITC-Pintide [5-FITC-(Ahx)-WFY(pS)PFLE-CONH2]]
% of binding inhibited after 1 h with PKA [7]: 16%

Next, values leading:

% Pintide bound (Pin1 [1]; 0 phosphosites on Pin1): 39 ± 5%
% Pintide bound (Pin1 [1]; 1 phosphosite on Pin1, * p <0.05 (ANOVA, Tukey HSD)): 26 ± 6* %
% Pintide bound (Pin1 [1]; 2 phosphosites on Pin1, ** p <0.01 (ANOVA, Tukey HSD)): 4 ± 1** %
Pin1 binding to Pintide (Pin1 [1]; Pin1 phosphorylated at Ser71, versus unphosphorylated, native MS): small, yet significant, difference
Molecule: AcHN‐WFY(pS)PFLE‐CONH2 [Pintide]

Kd (Pin1 [6]): 0.7 µM
Molecule: CC(C)C[C@H](NC(=O)[C@H](Cc1ccccc1)NC(=O)[C@@H]1CCCN1C(=O)[C@H](COP(=O)(O)O)NC(=O)[C@H](Cc1ccc(O)cc1)NC(=O)[C@H](Cc1ccccc1)NC(=O)[C@H](Cc1c[nH]c2ccccc12)NC(=O)CCCCCNC(=S)Nc1ccc2c(c1)C(=O)OC21c2ccc(O)cc2Oc2cc(O)ccc21)C(=O)N[C@@H](CCC(=O)O)C(N)=O [FITC‐Pintide, 5‐FITC‐(Ahx)‐WFY(pS)PFLE‐CONH2] ({FITC-Ahx}-WFY[pS]PFLE-NH2)
